# Laboratory results as given in article PMC7400577 (Scientific Reports, 2020).
# Residue numbers refer to the chain shown, from its start. Where two headings read alike, the source gives them in different places.
# Experiments:
# hGAT3 L314Q = target: T1, hGAT3 L314Q (Homo sapiens, UniProt P48066, L314Q); test: [3H]GABA uptake inhibition at hGAT3 L314Q transiently expressed in tsA201 cells; format: cell-based; details: 30 nM [3H]GABA, transient expression
# T1 construct: expressed in transfected cells; host or cells: tsA201 cells, transient (PolyFect), pcDNA5/FRT vector
# T1 sequence (P48066 1-632 L314Q): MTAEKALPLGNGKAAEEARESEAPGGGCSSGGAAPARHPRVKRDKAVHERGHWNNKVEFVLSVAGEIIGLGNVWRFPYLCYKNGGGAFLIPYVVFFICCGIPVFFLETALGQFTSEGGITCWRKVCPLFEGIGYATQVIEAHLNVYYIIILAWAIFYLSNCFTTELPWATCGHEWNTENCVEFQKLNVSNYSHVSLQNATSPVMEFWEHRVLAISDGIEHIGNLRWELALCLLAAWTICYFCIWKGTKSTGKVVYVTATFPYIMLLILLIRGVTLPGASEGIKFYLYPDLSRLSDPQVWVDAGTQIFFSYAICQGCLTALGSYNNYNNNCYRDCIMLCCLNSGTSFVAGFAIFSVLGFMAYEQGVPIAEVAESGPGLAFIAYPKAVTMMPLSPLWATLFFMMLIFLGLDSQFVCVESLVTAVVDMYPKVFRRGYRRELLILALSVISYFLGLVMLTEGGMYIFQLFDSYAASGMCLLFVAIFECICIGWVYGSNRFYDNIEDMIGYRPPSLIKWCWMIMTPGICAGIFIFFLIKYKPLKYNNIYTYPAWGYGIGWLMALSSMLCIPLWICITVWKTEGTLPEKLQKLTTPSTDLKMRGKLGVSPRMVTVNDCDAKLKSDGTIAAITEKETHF
# hBGT1 E52Y = target: T2, hBGT1 E52Y (Homo sapiens, UniProt P48065, E52Y); test: cell-based; details: 30 nM [3H]GABA, tsA201 cells, transient expression
# T2 sequence (P48065 1-614 E52Y): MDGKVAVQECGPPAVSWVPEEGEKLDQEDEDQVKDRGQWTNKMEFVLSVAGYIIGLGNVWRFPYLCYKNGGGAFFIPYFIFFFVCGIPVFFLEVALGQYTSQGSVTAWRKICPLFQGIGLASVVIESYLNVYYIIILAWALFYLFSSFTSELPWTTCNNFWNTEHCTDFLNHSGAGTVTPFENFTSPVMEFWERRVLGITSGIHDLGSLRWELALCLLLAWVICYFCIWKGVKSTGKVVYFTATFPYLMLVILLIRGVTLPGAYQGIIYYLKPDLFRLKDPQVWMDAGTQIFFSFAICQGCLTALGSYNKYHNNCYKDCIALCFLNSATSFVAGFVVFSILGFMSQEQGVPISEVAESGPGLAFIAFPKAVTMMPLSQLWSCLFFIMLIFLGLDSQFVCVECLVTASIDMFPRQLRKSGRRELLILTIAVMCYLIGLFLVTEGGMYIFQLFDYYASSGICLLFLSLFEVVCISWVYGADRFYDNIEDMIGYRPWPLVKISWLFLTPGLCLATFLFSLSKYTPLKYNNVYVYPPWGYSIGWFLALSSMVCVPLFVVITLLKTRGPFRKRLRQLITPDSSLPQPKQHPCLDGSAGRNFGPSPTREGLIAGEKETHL
# hGAT1 = target: T3, hGAT1 (Homo sapiens, UniProt P30531); test: [3H]GABA uptake inhibition at hGAT1 stably expressed in CHO Flp-In cells; format: cell-based; details: 30 nM [3H]GABA, 3 min, CHO Flp-In cells stably expressing hGAT1; read-out: IC50 hGAT1
# T3 construct: expressed in transfected cells
# Experimental: CHO Flp-In and tsA201 cells were cultured at 37 °C in a humidified atmosphere of […] and 5% CO2. As previously described[38],[63], CHO Flp-In cells stably expressing the hGATs were cultured in Ham’s F12 Nutrient Mix supplemented with 10% FBS, 1% P/S and plasmocin (5 µg/mL) under the selection pressure of hygromycin B (200 µg/mL). DMEM with GlutaMAX-I supplemented with 10% FBS and 1% P/S was used as growth medium for the tsA201 cells, which were transfected with DNA constructs using PolyFect according to the manufacturer’s specifications (Qiagen, West Sussex, UK), but with half of the recommended reagent volumes.
# Uptake assays were performed in PDL-coated white 96-well polystyrene cell culture microplates (PerkinElmer, Boston, MA, USA) as previously described[38],[63]. […] Assay buffer was HBSS supplemented with 20 mM HEPES, 1 mM CaCl2 and 1 mM MgCl2, pH 7.4. […] After termination, scintillation liquid (MicroScint-20, PerkinElmer) was added and the radioactivity measured in a TopCount NXT Microplate Scintillation Counter (PerkinElmer).
# Data analysis and statistical evaluation were performed in GraphPad Prism 7.02 (GraphPad Software, San Diego, CA, USA). Concentration-uptake inhibition curves, generated from the radioligand-based uptake assays, were fitted by non-linear regression, using the equation for sigmoidal concentration–response with variable slope: Y = Bottom + (Top–Bottom)/(1 + 10^((logIC50 − X) × HillSlope)), where Y is the response, X is the logarithm of the concentration, Top and Bottom are the plateaus in same units as Y, logIC50 is the concentration giving a response halfway between Bottom and Top, and the HillSlope is the steepness of the curve. For the substrate concentration–response curves generated from the FMP assay, the same equation was used but with logEC50 instead for logIC50. Unless otherwise stated, data are presented as means ± S.E.M. of at least three independent pooled experiments performed in triplicates.
# hBGT1 wt = target: T4, hBGT1 wt (Homo sapiens, UniProt P48065); test: [3H]GABA uptake inhibition at wt hBGT1 transiently expressed in tsA201 cells; format: cell-based; details: 30 nM [3H]GABA, tsA201 cells transiently expressing wt hBGT1
# T4 construct: expressed in transfected cells; host or cells: tsA201 cells, transient (PolyFect), pcDNA5/FRT vector
# T4 sequence (P48065 1-614): T2 sequence (P48065 1-614 E52Y) with Y52E
# [1] = read-out: pIC50 ± S.E.M. BGT1 wt (converted)
# [2] = read-out: pIC50 ± S.E.M. GAT3 L314Q (converted)
# T3 sequence (P30531 whole entry): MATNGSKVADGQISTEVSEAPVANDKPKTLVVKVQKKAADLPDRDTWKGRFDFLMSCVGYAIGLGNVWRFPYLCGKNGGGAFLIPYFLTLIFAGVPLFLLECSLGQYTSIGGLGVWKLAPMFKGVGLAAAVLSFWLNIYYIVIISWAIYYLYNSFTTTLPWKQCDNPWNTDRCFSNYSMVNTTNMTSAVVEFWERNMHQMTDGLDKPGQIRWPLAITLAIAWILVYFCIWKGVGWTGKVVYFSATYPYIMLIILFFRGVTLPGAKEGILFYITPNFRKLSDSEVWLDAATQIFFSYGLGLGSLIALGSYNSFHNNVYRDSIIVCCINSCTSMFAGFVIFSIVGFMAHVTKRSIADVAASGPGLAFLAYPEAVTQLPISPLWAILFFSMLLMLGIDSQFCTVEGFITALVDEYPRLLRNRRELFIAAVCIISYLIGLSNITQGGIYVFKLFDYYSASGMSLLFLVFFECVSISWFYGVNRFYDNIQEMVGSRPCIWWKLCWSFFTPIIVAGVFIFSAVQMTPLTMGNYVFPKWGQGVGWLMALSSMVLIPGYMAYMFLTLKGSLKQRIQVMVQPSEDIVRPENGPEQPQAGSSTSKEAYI
SMILES,IC50 (hGAT3 L314Q; read-out: IC50 GAT3 L314Q) [µM],IC50 (hBGT1 E52Y; IC50 BGT1 E52Y) [µM],IC50 (hGAT1) [µM],IC50 (hBGT1 wt; read-out: IC50 BGT1 wt) [µM],IC50 (hBGT1 wt; [1]) [µM],IC50 (hGAT3 L314Q; [2]) [µM],IC50 (hBGT1 E52Y; pIC50 ± S.E.M. BGT1 E52Y) [µM]
CCN1CC(C(=O)O)CN=C1N.Cl (stereo not shown) [compound 3],> 1000,152,> 1000,406,398,–,–
NC1=NC=C(C(=O)O)CN1.O=C(O)C(F)(F)F [compound 11],> 1000,> 1000,> 1000,220,–,–,–
"NC1=NCC(C(=O)O)CN1 (stereo not shown) [ATPCA, 2-amino-1,4,5,6-tetrahydropyrimidine-5-carboxylic acid, reference compound]",66,5.8,> 1000,11,10.5,58.9,–
"C[C@@H]1N=C(N)NC[C@@H]1C(=O)O (single isomer, unassigned) [l-15a]",> 1000,> 1000,> 1000,–,20.9,–,–
"NC1=NCC(C(=O)O)CC1 (stereo not shown) [compound 2, 6-amino-2,3,4,5-tetrahydropyridine-3-carboxylic acid, reference compound]",695,44,216,52,51.3,–,37.2
Cl.NC1=NCC(C(=O)O)CN1Cc1ccccc1 (stereo not shown) [compound 4],500,54,> 1000,354,324,490,–
